# In patent publication US7491849B2, “Oligoamine compounds and derivatives thereof for cancer therapy” (priority 2001, dated 2009):
# Tests used:
# LnCap = assay: MTT assay, tumor cell growth, LnCap; format: cell-based; settings: 6 days incubation, read-out: ID50 (μM) values for Human Tumor Cell Lines, LnCap
# Procedure: (§1) Effect of Saturated Oligoamines on Human Prostate Tumor Cell Growth by the MTT assay. Saturated oligoamines inhibited prostate cancer cell growth in vitro. DU-145 cells were most sensitive and PC-3 cells were less sensitive to the effects of oligoamines. In general, ID50 values of less than 0.5 μM were obtained (Table 2). Even though the PC-3 cells were relatively more resistant to the oligoamines, at a 5 μM concentration the oligoamines reduced the cell number to less than 1% of the control on day 6 of incubation. Tissue cultures and the MTT assay were performed as follows.
# (§2) Tissue Culture. Cells were seeded into 75 cm^2 culture flasks with 15 ml of Eagle's minimal essential medium supplemented with 10% fetal calf serum and nonessential amino acids. The flasks were incubated in a humidified 95% air/5% CO2 atmosphere. The cells were grown for at least 24 h to ensure that they are in the log phase of growth and then they were treated with the oligoamines. Cells were harvested by treatment for 5 min with STV (saline A, 0.05% trypsin, 0.02% EDTA) at 37° C. The flasks were rapped on the lab bench, pipetted several times and aliquots of cell suspension were withdrawn and counted using a Coulter particle counter that has been standardized for counting each cell line using a hemacytometer.
# (§3) MTT Assay: Trypsinized cell suspensions were diluted to seed 80 μl suspensions containing 500 cells in each well of a 96 well Corning microtiter plate and incubated overnight at 37° C. in a humidified incubator in 5% CO2. 20 μl of appropriately diluted stock solution of each drug were added to the middle 8 columns of cell suspension in the microtiter plates. Each drug concentration was run in quadruplicate. Outer columns of the plates were used for buffer controls. Cells were incubated with the drug for 6 days at 37° C. in 5% CO2/H2O atmosphere. 25 μl of 5 mg/ml solution of 3-(4,5-dimethylthiazol-2-yl)-2,5-diphenyl tetrazolium bromide (MTT) were added to each well and incubated for 4 hours at 37° C. in 5% CO2/H2O incubator. Cells were lysed by incubating overnight with 100 μl lysis buffer (500 ml of the lysis buffer contains: 100 g lauryl sulfate (SDS), 250 ml of N,N-dimethylformamide, and 2 ml of glacial acetic acid, made up to volume with water; pH 4.8).
# (§4) The color was monitored at room temperature at 570 nm in a E-max Precision Microplate Reader (Molecular Devices Corporation, Sunnyvale, Calif.) and data was analyzed using cell survival software supplied by Molecular Devices Corporation.
# PC-3 = assay: MTT assay, tumor cell growth, PC-3; format: cell-based; settings: 6 days incubation, read-out: ID50 (μM) values for Human Tumor Cell Lines, PC-3
# Procedure: as §1, §2, §3, §4
# [1] = tested on: DU-145 human prostate tumor xenografts; assay: Subcutaneous DU-145 prostate tumor xenograft in mice; format: in vivo, male NCr-nu mice; settings: for Days Delay (T-C) / Non-Specific Deaths/Total / Tumor Free Survival/Total / Tumor Regression, Number of Complete / Tumor Regression, Number of Partial / Days to 4 Doublings / % T/C, Day 21 (median tumor weight) / % T/C, Day 35 (median tumor weight) / median tumor growth delay [(T-C)/C x 100] / tolerability / deaths: 6.25 mg/kg IV; for Days Delay (T-C) / Non-Specific Deaths/Total / Tumor Free Survival/Total / Tumor Regression, Number of Complete / Tumor Regression, Number of Partial / Days to 4 Doublings / % T/C, Day 21 (median tumor weight) / % T/C, Day 35 (median tumor weight): Q1D x 5 day 14, 28; for Days to 4 Doublings: control 17.1; for % T/C, Day 21 (median tumor weight): three days after first round; for % T/C, Day 35 (median tumor weight): three days after second round; for median tumor growth delay [(T-C)/C x 100]: two rounds, statistically significant; for antitumor activity (summary): at a dosage which was well tolerated (6.25 mg/kg IV)
# Procedure: Response of implanted sc DU-145 prostate tumors to treatment with SL-11159 and SL-11226. This experiment evaluates the antitumor efficacy of SLIL Biomedical Corporation compounds (SL-11159, SL-11226) against subcutaneously-implanted DU-145 human prostate tumor xenografts in male NCr-nu (line 3A10F17T1) mice. All compounds were tested at a single dose level when administered intravenously (iv), at 6.25 mg/kg. Both SL-11159 and SL-11226 were prepared in water for injection (soluble); the injection volume was 0.1 mL/10 g body weight.
# All compounds were administered for two rounds of five daily treatments with a nine-day rest period between the rounds. The control group was treated with vehicle (water for injection) for two rounds on a Q1D×5 schedule. There were sixteen mice in the control group and eight mice in each of the treatment groups. All treatments were initiated on day 14 postimplant when all mice had established tumors ranging in size from 75 to 198 mg. The experiment was terminated on day 53 after tumor implantation. The individual animal's time to reach the evaluation size (time to reach four doublings) was used in the calculations of the median tumor growth delay [(T−C)/C×100, %] and as the endpoint in a life tables analysis (stratified Kaplan-Meier estimation followed by the Mantel-Haenszel log-rank test) in order to statistically compare the growth data between groups (see Table 5; group 1 is the control group, group 2 was treated with SL-11159, group 3 was treated with SL-11226).
# The time required for a tumor to double in mass is calculated based on the initial tumor weight at the beginning of the treatment period. When the initial tumor weight has been selected, tumor weights are then examined, beginning with the last recorded value, until a doubling is calculated. Examination from the last recorded value is to ensure that the doubling time is calculated during the final phase of tumor growth and not prior to a tumor regression. Values between measurements are calculated by exponential […], and a value may be estimated after the final measured weight provided the extrapolated value occurs prior to the animal's death.)
# Control tumors grew well in fourteen out of sixteen mice. There was one xenograft failure (no-take). One animal died during the second round of the vehicle treatment, on day 29, with a tumor weight of 770 mg. Tumors reached the evaluation size of four mass doublings in 17.1 days, which covers the period of the first round of treatment and three days of the second round of treatment. The effect of each round of treatment was evaluated by the comparison of the median tumor weight of the treated groups on days 21 or 35 (three days after the end of the first or the second round of treatment, respectively) to the median tumor weight of the control group on the same day (T/C×100%, see Table 4A).
# Tumor regression was scored (excluding nonspecific deaths), according to the smallest tumor size attained after the beginning of treatment relative to the size at first treatment: • partial: <50 percent of its size at 1 st rx, but not complete. • complete: tumor becomes unpalpable.
# Duration of regression: the interval during which a tumor classified as a partial or complete regressor was below 50 percent of its size at first treatment.
# Evaluation size: this value is the tumor mass selected at four mass doublings beginning with the initial tumor size at the start of treatment.
# T−C (days): the difference in the median of times postimplant for tumors of the treated groups to attain an evaluation size compared to the median of the control group.
Compound,IC50 (LnCap) [µM],IC50 (PC-3) [µM],Days Delay (T-C) [1] [days],Non-Specific Deaths/Total [1],Tumor Free Survival/Total [1],"Tumor Regression, Number of Complete [1]","Tumor Regression, Number of Partial [1]",Days to 4 Doublings [1] [days],"% T/C, Day 21 (median tumor weight) [1] [%]","% T/C, Day 35 (median tumor weight) [1] [%]",median tumor growth delay [(T-C)/C x 100] [1] [%],antitumor activity (summary) [1],tolerability / deaths ([1]; first round of treatment),tolerability / deaths ([1]; second round of treatment),tolerability / deaths ([1]; whole treatment (two rounds))
CCNCCCCNCCCCNCCCCNCCCCNCCCCNCCCCNCCCCNCCCCNCCCCNCC.Cl.Cl.Cl.Cl.Cl.Cl.Cl.Cl.Cl.Cl [SL-11159],0.25,0.6,>6.9,1/8,0/8,0,0,>24.0,65,63,> 40,measurable antitumor activity,well tolerated without deaths,death of one animal,
CCNCCCCNCCCCNCCCCNCCCCNCCCCNCCCCNCCCCNCCCCNCCCCNCCCCNCCCCNCC.Cl.Cl.Cl.Cl.Cl.Cl.Cl.Cl.Cl.Cl.Cl.Cl [SL-11226],0.15,0.14,>6.4,0/8,0/8,0,0,>23.5,46,61,> 37,measurable antitumor activity,,,well tolerated without deaths
